Data taken from patent US6348317B1, “Fluorescent and DNA cleavage properties of peptide/dye conjugates” (The Arizona Board of Regents, priority 1999, dated 2002).

Legend:
[1] = biological target: fluorescein labeled GRE2 sequence dsDNA (F-GRE2); assay: Total fluorescence quenching (energy transfer) of fluorescein labeled DNA; format: binding
Procedure: Fluorescence Measurements. Steady state fluorescence anisotropy measurements were carried out in 20 mM Tris (pH 7.9), 30 mM NaCl, 20 mM KCl, 1 mM MgCl2, and 5% glycerol. […] DNA samples used were either the non-labeled sequences shown in FIG. 2 or a fluorescein labeled duplex with a sequence matching GRE2 (FIG. 2).
For fluorescein labeled DNA measurements, the excitation wavelength was 491 nm and the emission was recorded at 521 nm with a 1.0 nm slit width. Titrations were performed holding the concentration of fluorescein-labeled DNA constant and increasing the concentration of TO, ZF or TO-ZF as indicated. To correct for the small amount of background fluorescence from TO in these measurements, control experiments were performed in parallel using DNA that was not fluorescein labeled, but was otherwise identical to the labeled DNA fragments. The thiazole orange fluorescence intensity measured in the control experiments was subtracted from the total fluorescence intensity for each data point. Under the excitation conditions of these measurements, the contribution to fluorescence by TO at 521 nm was less than 5% of the maximum fluorescence signal observed in the experiment. Even at the point in the titration where the maximum quenching of fluorescein fluorescence was observed (the point of lowest total fluorescence in the measurement), less than half of the fluorescence was due to TO, and this could accurately be removed by subtraction of the control value. Each point is an average of 60 measurements, and each titration was performed independently three times.
Total fluorescence data were collected in parallel to the anisotropy measurements and were calculated from raw data as the fluorescence intensity in the vertical plane plus two times the fluorescence intensity of the horizontal plane, (TF=Ivv+2Ivh). These values were used to determine the percent of the maximum fluorescence for each point along the titration and fit to equation 2. [formula] […]
Fluorescence changes upon binding of TO, ZF and TO-ZF to GRE containing duplex DNA. Equilibrium binding of the non-labeled zinc finger (ZF), unconjugated thiazole orange (TO) and thiazole orange-zinc finger conjugate (TO-ZF) to fluorescein labeled GRE2 sequence dsDNA was measured by both fluorescence anisotropy and total fluorescence. […] For fluorescein fluorescence, excitation was at 491 nm and emission was detected at 521 nm. […] Changes in the steady-state anisotropy of the fluorescein fluorescence from the labeled GRE sequence containing DNA (F-GRE2) can arise from two sources. […] By comparison, the amino acid zinc finger Xfin-31 was determined to have a dissociation constant of approximately 1 μM, M. S. Lee, et al., FEBS 279:289-294 (1991), whereas, the 66 amino acid zinc finger from GATA-1 has a dissociation constant of 10 nM. […]

GRE1 dsDNA = assay: Photocleavage at 514 nm, PAGE analysis; format: biochemical
Procedure: The purified DNA strands shown in FIG. 2 were 5′^-32P-end-labeled using T4 polynucleotide kinase and purified as described above. Oxygen removal was performed by bubbling argon through the samples. Irradiations were performed on […] samples in a 1.0 mL glass cuvette fit with a septum using an argon-ion laser at 514 nm with a power of 300 mW/cm^2. After irradiation, samples were divided in half and one portion treated with piperidine, the other immediately frozen. Piperidine treatment consisted of adding an equal volume of freshly prepared 20% piperidine in water to the sample followed by heating at 90° C. for 30 minutes. Both the treated and untreated fractions were dried under vacuum. To each dried sample was added […] of 80% formamide in water. The products of the photocleavage experiments were analyzed on a 15% polyacrylamide (19:1) vertical sequencing gel with dimensions 21 cm×40 cm×0.4 mm. […] Gels were dried and exposed to a phosphorimaging screen for 4 hours and analyzed on a Molecular Dynamics Storm-840 gel scanner in phosphorimaging mode.
Photocleavage of TO-ZF conjugate. […] After irradiation of TO-ZF bound to dsDNA in Tris buffer solution at 514 nm (514 nm is in the main band of the absorbance spectrum of intercalated thiazole orange as shown in FIG. 3), the photo-products were denatured and separated using denaturing polyacrylamide gel electrophoresis (PAGE). […]

Substance: TO-ZF: 29 amino acid single zinc finger from residues 438-465 of glucocorticoid receptor, thiazole orange coupled to a lysine ε-amine
- Kd ([1]; 1 nM F-GRE2, read-out: dissociation constant from quenching curve, two-state binding model): 14 nM
- change in total fluorescein fluorescence over the titration ([1]; excitation 491 nm, emission 521 nm): large decreases in steady state fluorescence
- site of photocleavage (GRE1 dsDNA; 514 nm irradiation, piperidine treatment): piperidine dependent cleavage to occur predominantly at the guanine within the GRE
- total chemical yield of the piperidine dependent reactions (GRE1 dsDNA; samples reacted in the presence of oxygen): 2%
